How the values were obtained:
Format in all cases: cell-based
Details in all cases: 72 h; human CD4+ T cells under TH17-polarizing conditions, 3 days, supernatant ELISA, 0.1% DMSO
IL-21 = assay: Human TH17 cytokine inhibition measured by ELISA: IL-21
Description: (§1) Human TH17 Cytokine Inhibition as Measured by ELISA
(§2) Peripheral blood mononuclear cells (PBMCs) were sourced from freshly prepared leukocyte enriched plasma (buffy coat) from healthy donors (New York Blood Center). PBMCs were isolated by density gradient centrifugation using Ficoll-Paque™ PLUS (GE Healthcare). Human CD4+ T cells were seeded into 96-well plates (5×10^4 cells/well) and activated with plate-bound anti-human (h)-CD3 antibody and soluble h-aCD28 (both at lug/ml; eBioscience) and differentiated into TH17 cells with 20 ng/mL h-IL-6, 5 ng/mL h-TGF-β1, 10 ng/mL h-IL-23 (eBioscience) and 10 ng/mL IL-1β (Miltenyi Biotec) in serum-free TexMACS Medium (Miltenyi Biotec) supplemented with 1% Penicillin/Streptomycin (Lonza) for 3 days. CD4+ T cells propagated under TH17-polarizing conditions were cultured in the presence or absence of various concentrations of compounds with a final concentration of 0.1% DMSO. Supernatants were collected and stored at −20° C. until assayed for IL-17A, IL-17F and IL-21 levels by “Ready-Set-Go” ELISA kits (eBioscience) as per manufacturer's instructions. Endpoint absorbance was read at 450 nm using a microplate reader (Perkin Elmer).

IL-22 = assay: Human TH17 cytokine inhibition measured by ELISA: IL-22
IL-17A = assay: Human TH17 cytokine inhibition measured by ELISA: IL-17A
Description: as §1, §2

IL-17F = assay: Human TH17 cytokine inhibition measured by ELISA: IL-17F
Description: as §1, §2

Row | IC50 (IL-21) [µM] | IC50 (IL-22) [µM] | IC50 (IL-17A) [µM] | IC50 (IL-17F) [µM] | SMILES
1 | < 10 | < 10 | > 10 | < 10 | O=C(c1ccccc1)N1CCC(Cn2cnc3cc(-c4cn[nH]c4)ccc32)CC1 [Example 7, (4-((5-(1H-pyrazol-4-yl)-1H-benzo[d]imidazol-1-yl)methyl)piperidin-1-yl)(phenyl)methanone]
2 | < 10 | < 10 | > 10 | < 10 | O=C(Cc1ccccc1)N1CCC(Cn2cnc3cc(-c4cn[nH]c4)ccc32)CC1 [Example 8]
3 | < 10 | < 10 | < 10 | < 10 | O=C(CCc1ccccc1)N1CCC(Cn2cnc3cc(-c4cn[nH]c4)ccc32)CC1 [Example 9, 1-(4-((5-(1H-pyrazol-4-yl)-1H-benzo[d]imidazol-1-yl)methyl)piperidin-1-yl)-3-phenylpropan-1-one]
4 | < 10 | < 10 | < 10 | < 10 | O=C(CC1CCCCC1)N1CCC(Cn2cnc3cc(-c4cn[nH]c4)ccc32)CC1 [Example 10]
5 | < 10 | < 10 | < 10 | < 10 | O=S(=O)(c1ccccc1)N1CCC(Cn2cnc3cc(-c4cn[nH]c4)ccc32)CC1 [Example 11, 1-((1-(phenylsulfonyl)piperidin-4-yl)methyl)-5-(1H-pyrazol-4-yl)-1H-benzo[d]imidazole]
6 | > 10 | < 10 | < 10 | < 10 | O=S(=O)(Cc1ccccc1)N1CCC(Cn2cnc3cc(-c4cn[nH]c4)ccc32)CC1 [Example 12, 1-((1-(benzylsulfonyl)piperidin-4-yl)methyl)-5-(1H-pyrazol-4-yl)-1H-benzo[d]imidazole]
